As a reminder, the IC50 is the concentration that gives 50% inhibition. Lower therefore signals inhibition by little substance. The CC50 is the concentration that lowers cell viability or growth by half. Read a low CC50 as greater toxicity to the cells. The term MIC denotes the lowest concentration found to suppress growth.

In brackets after ≈: the same amount, converted by molar mass. A value given as a limit tells only on which side of the number the result lay.

We go through 17 molecules from patent US20230233533A1, “COMPOSITIONS, METHODS OF TREATING AND PREVENTING FUNGAL INFECTIONS, AND METHODS OF INHIBITING PRP8 INTEIN EXPRESSION” (Health Research, Inc., priority 2020, published 2023).

In data set [1] the target is T1, Prp8 intein (Cryptococcus gattii, UniProt E6R027). Nature of the data set: Split GFP-Prp8i intein splicing assay. The note with it: split GFP-Prp8 intein splicing. The data set is classed as biochemical. On the procedure:
Cloning, expression and purfication—The split GFP-Prp8i was constructed using a mega-PCR mutagenesis approach. […] After digestion with Dpn I restriction enzyme, the PCR product was transformed into DH5α Escherichia coli. Clones were verified by plasmid DNA sequencing. The expression, refolding and purification of the GFP-Prp8i fusion protein were carried out as described previously.
[…] Then 100 μl 2×TCEP was added to a final concentration of 20 μM. The reactions were incubated at 25° C. overnight. […] Two readings were taken, one prior to addition of TCEP (I0) and one after incubation overnight with TCEP (If). Fluorescence/luminescence differences (ΔFluorescence or ΔLuminescence) were defined as If−I0 for each well. […] DMF control served as 100% splicing activity.
Split GFP-Prp8 and CJGFP-Prp8 intein splicing assays—Using black and clear bottom 96-well plates, the DPNB-treated, -refolded and -concentrated GFP-Prp8 or CfGFP-Prp8 fusion protein (0.5 μM) was incubated with compounds or Dimethylsulfoxide (DMSO) solvent control for 30 min at 25° C. in a 100 μl intein splicing buffer (20 mM Bis-tris propane, 0.5 M NaCl, 0.5 M arginine, 1 mM EDTA, and 0.05% CHAPS). Then 100 μl 2×TCEP was added to a final concentration of 20 μM. The reactions were incubated at 25° C. overnight. […] Two readings were taken, one prior to addition of TCEP (I0) and one after incubation overnight with TCEP (If). Fluorescence/luminescence differences (ΔFluorescence or ΔLuminescence) were defined as If−I0 for each well. […] DMSO control served as 100% splicing activity.

Data set [2] concerns the target T1, Prp8 intein. The data set can be described thus: Split Renilla luciferase RLuc-Prp8 intein splicing assay. The data set is classed as biochemical. The conditions noted are these: split Renilla luciferase RLuc-Prp8 intein splicing. On the procedure: Split luciferase Prp8 intein splicing assay—The split RLuc-Prp8 fusion protein was carried out and monitored using a Veritas luminometer, as described previously.
Split luciferase RLuc-Prp8 and NnLuc-Prp8 intein splicing assays—The split RLuc-Prp8 intein splicing assay was carried out and monitored using a Veritas luminometer, as described previously. […] Microbes. Infect. […] For NnLuc-Prp8 intein splicing assay, the NnLuc-prp8 is diluted in assay buffer (50 mM Tris, 0.1% BSA, 1 mM EDTA, pH 7.4) and 50 ul is added to each well in 96 well black plates. Test molecules or the solvent was added and incubated for 30 to 60 min. A splicing inducer TCEP (50 ul, 100 μM) is added and incubated for 24 h. Luciferase substrate (Furimazine, 25 ul 1:10,000 diluted) is added and luminescence is read using a luminescence reader. IC50 is calculated using Graphpad prism.

Another data set is described as follows: in vitro. It counts as cell-based, human. The note with it: human, CC50 A549. How it is done:
Cytotoxicity—Cytotoxicity assays were carried out using human lung carcinoma cell line A549, as described (Chen et al., “Selective Inhibition of the West Nile Virus Methyltransferase by Nucleoside Analogs,” Antiviral Research 97(3):232-239 (2013), which is hereby incorporated by reference in its entirety). Briefly, the A549 cells (5×10^3) were incubated with/without compounds in a 96-well plate at 37° C. for 48 h. Cell viability was determined using the MTT assay (ATCC) as was described previously (Chen et al., “Selective Inhibition of the West Nile Virus Methyltransferase by Nucleoside Analogs,” Antiviral Research 97(3):232-239 (2013) and Brecher et al., “Identification and Characterization of Novel Broad-Spectrum Inhibitors of the Flavivirus Methyltransferase,” ACS Infectious Diseases 1(8):340-349 (2015), both of which are hereby incorporated by reference in their entirety). N=3.
Cytotoxicity—Cytotoxicity assays were carried out using human lung carcinoma cell line A549, as described. Chen et al., “Selective Inhibition of the West Nile Virus Methyltransferase by Nucleoside Analogs,” Antiviral Res. 97:232-9 (2013), which is hereby incorporated by reference in its entirety. Briefly, the A549 cells (5×10^3) were incubated with/without compounds in a 96-well plate at 37° C. for 48 h. Cell viability was determined using the MTT assay (ATCC) as was described previously (Chen et al., “Selective Inhibition of the West Nile Virus Methyltransferase by Nucleoside Analogs,” Antiviral Research 97(3):232-239 (2013) and Brecher et al., “Identification and Characterization of Novel Broad-Spectrum Inhibitors of the Flavivirus Methyltransferase,” ACS Infectious Diseases 1(8):340-349 (2015), both of which are hereby incorporated by reference in their entirety). N=3.

For a further data set, the system named is C. neoformans H99 strain. Nature of the data set: Fungal susceptibility test, broth microdilution MIC. The data set is classed as cell-based, Cryptococcus neoformans. The conditions noted are these: Cryptococcus neoformans, H99STRAIN; C. neoformans H99, microbroth dilution; read-out: MIC H99. How it is done: Fungal susceptibility test—The fungal susceptibility test was carried out with a compound concentration series as described. […] The broth microdilution method was used to determine the compound MIC values against C. neoformans.
Fungal susceptibility test—The fungal susceptibility test was carried out with a compound concentration series as described. […] Microbes. Infect. […] The broth microdilution method was used to determine the compound MIC values against C. neoformans.
A general note: Broth dilution looks for growth in wells or tubes with falling amounts of substance.

T1 sequence (E6R027 entry or part of it): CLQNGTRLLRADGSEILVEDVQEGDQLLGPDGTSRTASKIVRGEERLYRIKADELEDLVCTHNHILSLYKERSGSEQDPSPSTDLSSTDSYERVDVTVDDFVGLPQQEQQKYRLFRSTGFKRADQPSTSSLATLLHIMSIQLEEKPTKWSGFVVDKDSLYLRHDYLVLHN

In the case of `O=C(Nc1cc(F)cc(C(F)(F)F)c1)c1ncsc1S(=O)(=O)c1ccc(Cl)cc1` [JMX0522, 5-((4-Chlorophenyl)sulfonyl)-N-(3-fluoro-5-(trifluoromethyl)phenyl) thiazole-4-carboxamide], the IC50 on Prp8 intein [1] worked out at 23.5 µM; against Prp8 intein [2], 20.2 µM. In addition, the CC50 at 48 h in the data set “in vitro” was found to be 97.7 µM. Also, the MIC in the data set with C. neoformans H99 strain came out at 100 µM (≈ 46.5 µg/mL).
Taken in the same sequence, the figures for `O=C(Nc1ccc(C(F)(F)F)nc1)c1ncsc1S(=O)(=O)c1ccc(Cl)cc1` [JMX0523, 5-((4-Chlorophenyl)sulfonyl)-N-(6-(trifluoromethyl)pyridin-3-yl) thiazole-4-carboxamide] were greater than 50 µM, 37.1 µM, 114 µM and greater than 100 µM.
Taken in the same sequence, the figures for `O=C(Nc1ccc(F)nc1)c1ncsc1S(=O)(=O)c1ccc(Cl)cc1` [JMX0524, 5-((4-Chlorophenyl)sulfonyl)-N-(6-fluoropyridin-3-yl)thiazole-4-carboxamide] were greater than 50 µM, 7.8 µM, 174 µM and greater than 100 µM.
Taken in the same sequence, the figures for `O=C(Nc1ccc(F)cc1)c1ncsc1S(=O)(=O)c1ccc(Cl)cc1` [JMX0525, 5-((4-Chlorophenyl)sulfonyl)-N-(4-fluorophenyl)thiazole-4-carboxamide] were greater than 50 µM, 6.4 µM, 309 µM and greater than 100 µM.
On to `O=C(NCc1ccc(F)cc1)c1ncsc1S(=O)(=O)c1ccc(Cl)cc1` [JMX0541, 5-((4-Chlorophenyl)sulfonyl)-N-(4-fluorobenzyl)thiazole-4-carboxamide], for which the IC50 at Prp8 intein [1] is greater than 50 µM; against Prp8 intein [2] it was 10.6 µM. In addition, in “in vitro”, it took 114 µM to reach half-maximal cytotoxicity (CC50 at 48 h). Further, in the data set on C. neoformans H99 strain, the MIC came to 100 µM (≈ 41.1 µg/mL).
The corresponding values for `O=C(Nc1ccc(F)cc1)c1nnsc1Sc1ccc(Cl)cc1` [JMX0564, 5-((4-Chlorophenyl)thio)-N-(4-fluorophenyl)-1,2,3-thiadiazole-4-carboxamide] are 55.7 µM, 15.8 µM, 418 µM and greater than 100 µM.
On to `O=C(Nc1ccc(F)cc1)c1nnsc1[S+]([O-])c1ccc(Cl)cc1` (centres unmarked) [JMX0565-1, 5-((4-Chlorophenyl)sulfinyl)-N-(4-fluorophenyl)-1,2,3-thiadiazole-4-carboxamide], for which the IC50 against Prp8 intein [1] came to 7.1 µM; at Prp8 intein [2] it was 16.6 µM. The CC50 at 48 h in “in vitro” turned out to be 32.5 µM. Also, the MIC in the data set with C. neoformans H99 strain came out at 0.097 µM (≈ 0.037 µg/mL).
The corresponding values for `O=C(Nc1ccc(F)cc1F)c1nnsc1Sc1ccc(Cl)cc1` [JMX0569, 5-((4-Chlorophenyl)thio)-N-(2,4-difluorophenyl)-1,2,3-thiadiazole-4-carboxamide] are greater than 50 µM, 36.2 µM, 186 µM and greater than 100 µM.
Taken in the same sequence, the figures for `O=C(Nc1ccc(Cl)cc1)c1nnsc1Sc1ccc(Cl)cc1` [JMX0570, N-(4-Chlorophenyl)-5-((4-chlorophenyl)thio)-1,2,3-thiadiazole-4-carboxamide] were 38.7 µM, 21.6 µM, 83.7 µM and greater than 100 µM.
Taken in the same sequence, the figures for `O=C(Nc1ccc(Cl)cc1)c1nnsc1S(=O)(=O)c1ccc(Cl)cc1` [JMX0571, N-(4-Chlorophenyl)-5-((4-chlorophenyl)sulfonyl)-1,2,3-thiadiazole-4-carboxamide] were 1.8 µM, 12.6 µM, 33.8 µM and 0.39 µM (≈ 0.162 µg/mL).
`O=C(NCc1ccc(F)cc1)c1nnsc1Sc1ccc(Cl)cc1` [JMX0573, 5-((4-Chlorophenyl)thio)-N-(4-fluorobenzyl)-1,2,3-thiadiazole-4-carboxamide]: the values for the IC50 against Prp8 intein [1] and against Prp8 intein [2] were greater than 50 µM and 5.5 µM, respectively. For the same molecule, in “in vitro”, the CC50 at 48 h was found to be 282 µM. The MIC in the data set with C. neoformans H99 strain is greater than 100 µM.
The corresponding values for `O=C(NCc1ccc(F)cc1)c1nnsc1S(=O)(=O)c1ccc(Cl)cc1` [JMX0574, 5-((4-Chlorophenyl)sulfonyl)-N-(4-fluorobenzyl)-1,2,3-thiadiazole-4-carboxamide] are 1.6 µM, 59.1 µM, 21.5 µM and 0.78 µM (≈ 0.321 µg/mL).
Taken in the same sequence, the figures for `O=C(Nc1ccc(C(F)(F)F)cc1)c1nnsc1Sc1ccc(Cl)cc1` [JMX0575, 5-((4-Chlorophenyl)thio)-N-(4-(trifluoromethyl)phenyl)-1,2,3-thiadiazole-4-carboxamide] were greater than 50 µM, 21.5 µM, 271 µM and greater than 100 µM.
With `O=C(Nc1ccc(C(F)(F)F)cc1)c1nnsc1S(=O)(=O)c1ccc(Cl)cc1` [JMX0576, 5-((4-Chlorophenyl)sulfonyl)-N-(4-(trifluoromethyl)phenyl)-1,2,3-thiadiazole-4-carboxamide], the IC50 at Prp8 intein [1] was found to be 0.9 µM; on Prp8 intein [2], 11.9 µM. In the data set “in vitro”, half-maximal cytotoxicity (CC50 at 48 h) was put at 40.3 µM. Besides, the MIC with C. neoformans H99 strain is 0.78 µM (≈ 0.349 µg/mL).
The corresponding values for `O=C(Nc1ccc(F)cc1)c1nnc(Sc2ccc(Cl)cc2)s1` [JMX0584, 5-((4-chlorophenyl)thio)-N-(4-fluorophenyl)-1,3,4-thiadiazole-2-carboxamide] are greater than 50 µM, 11 µM, greater than 150 µM and greater than 100 µM.
Consider `O=C(Nc1ccc(F)cc1)c1nnc(S(=O)(=O)c2ccc(Cl)cc2)s1` [JMX0585-1, 5-((4-chlorophenyl)sulfonyl)-N-(4-fluorophenyl)-1,3,4-thiadiazole-2-carboxamide], for which the IC50 against Prp8 intein [1] was 5.7 µM; at Prp8 intein [2], 19.4 µM. The same molecule registered a CC50 at 48 h in the data set “in vitro” of 26 µM. Besides, in the data set on C. neoformans H99 strain, the MIC stood at 3.12 µM (≈ 1.24 µg/mL).
The corresponding values for `O=C(Nc1ccc(F)cc1)c1nnc([S+]([O-])c2ccc(Cl)cc2)s1` (centres unmarked) [JMX0585-2, 5-((4-chlorophenyl)sulfinyl)-N-(4-fluorophenyl)-1,3,4-thiadiazole-2-carboxamide] are 4.5 µM, 20.9 µM, 28.5 µM and 0.097 µM (≈ 0.037 µg/mL).
